Laboratory results as given in ChEMBL document CHEMBL3137667, “[Drug-induced liver injury; fourteenth updated edition of the bibliographic database of liver injuries and related drugs]” (Gastroenterol Clin Biol, 2004).

How the values were obtained:
[1] = human
[2] = human; remark: listed apart in the source
[3] = human, serum
[4] = human; remark: listed apart in the source
[5] = Highest frequency of moderate liver toxicity observed during clinical trials, expressed as a percentage. [column '% BIOL' in source]; settings: human
[6] = human; remark: listed apart in the source
[7] = human, serum, 4383 h
[8] = human; remark: listed apart in the source
[9] = Highest frequency of acute liver toxicity observed during clinical trials, expressed as a percentage. [column '% AIGUE' in source]; settings: human
[10] = human; remark: listed apart in the source
[11] = human; remark: listed apart in the source
[12] = human; remark: listed apart in the source
[13] = human, serum; remark: listed apart in the source
[14] = human; remark: listed apart in the source
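Throughout, for Hepatotoxicity (association with vascular disease): count of indexed literature references reporting vascular liver injury in humans, e.g. peliosis hepatitis, hepatic veno-occlusive disease or Budd-Chiari syndrome.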
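Throughout, for Hepatotoxicity (benign tumour): value is a count of indexed literature references citing a benign tumour confirmed by histopathology.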
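Throughout, for Hepatotoxicity (choleostasis): human cholestatic liver injury, shown by histopathology or by peak ALT or AST elevation over alkaline phosphatase ratio below 2, value counts indexed literature reports.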
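Throughout, for Hepatotoxicity (chronic liver disease): chronic liver injury confirmed by histopathology or persistently raised serum aminotransferase activity beyond 6 months, value given as the count of indexed literature references.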
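Throughout, for Hepatotoxicity (cirrhosis): value is a count of indexed literature references reporting cirrhosis confirmed by histopathology.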
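Throughout, for Hepatotoxicity (cytolytic): human cytolytic liver injury, shown by histopathology or by a ratio above 5 of peak ALT or AST elevation to alkaline phosphatase elevation, value counts indexed references.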
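Throughout, for Hepatotoxicity (granulomatous hepatitis): value is a count of indexed literature references reporting granulomatous liver disease confirmed by histopathology.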
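Throughout, for Hepatotoxicity (malignant tumour): malignant tumour confirmed by histopathology, value gives the count of indexed literature references reporting it.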
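Throughout, for Hepatotoxicity (severe hepatitis): human clinical data: severe hepatitis, meaning potentially life-threatening liver failure or clinically observed cases, the value counts how many indexed literature references report it.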
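Throughout, for Hepatotoxicity (steatosis): steatosis confirmed by histopathology, value is the count of indexed references.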

| Molecule | Hepatotoxicity (steatosis) [1] | Hepatotoxicity (granulomatous hepatitis) [2] | Hepatotoxicity (moderate) [3] | Hepatotoxicity (association with vascular disease) [4] | Hepatotoxicity (moderate) [5] | Hepatotoxicity (cirrhosis) [6] | Hepatotoxicity (chronic liver disease) [7] | Hepatotoxicity (severe hepatitis) [8] | Hepatotoxicity (acute) [9] | Hepatotoxicity (benign tumour) [10] | Hepatotoxicity (malignant tumour) [11] | Hepatotoxicity (choleostasis) [12] | Hepatotoxicity (acute) [13] | Hepatotoxicity (cytolytic) [14] |
| --- | --- | --- | --- | --- | --- | --- | --- | --- | --- | --- | --- | --- | --- | --- |
| CCc1[nH]c(=O)[nH]c1C(=O)c1ccncc1 [PIROXIMONE] | 0 | 0 | 0 | 0 | 0% | 0 | 0 | 0 | 0% | 0 | 0 | 0 | 1 | 0 |
| COc1ccc(-n2nc(CCC(=O)N(C)O)cc2-c2ccc(Cl)cc2)cc1 [TEPOXALIN] | 0 | 0 | 1 | 0 | 2.5% | 0 | 0 | 0 | 0% | 0 | 0 | 0 | 0 | 0 |
| NARTOGRASTIM | 0 | 0 | 1 | 0 | 0% | 0 | 0 | 0 | 0% | 0 | 0 | 0 | 0 | 0 |
| CO[C@@]1(NC(=O)C2SC(=C(C(N)=O)C(=O)O)S2)C(=O)N2C(C(=O)O)=C(CSc3nnnn3C)CS[C@@H]21 (stereo not given in full) [CEFOTETAN] | 0 | 0 | 10 | 0 | 37.5% | 0 | 0 | 0 | 0% | 0 | 0 | 0 | 0 | 0 |
| C[C@H]1C[C@H]2[C@@H]3CCC4=CC(=O)C=C[C@]4(C)[C@@]3(F)[C@@H](O)C[C@]2(C)[C@@]1(O)C(=O)CO [BETAMETHASONE] | 1 | 0 | 0 | 0 | 0% | 0 | 0 | 0 | 0% | 0 | 0 | 0 | 0 | 0 |
| CC(C)C[C@H](NC(=O)[C@H](CCCCN)NC(=O)CNC(=O)[C@H](CC(C)C)NC(=O)[C@@H](NC(=O)[C@@H]1CSSC[C@H](N)C(=O)N[C@@H](CO)C(=O)N[C@@H](CC(N)=O)C(=O)N[C@@H](CC(C)C)C(=O)N[C@@H](CO)C(=O)N[C@@H]([C@@H](C)O)C(=O)N1)C(C)C)C(=O)N[C@@H](CO)C(=O)N[C@@H](CCC(N)=O)C(=O)N[C@@H](CCC(=O)O)C(=O)N[C@@H](CC(C)C)C(=O)N[C@@H](Cc1c[nH]cn1)C(=O)N[C@@H](CCCCN)C(=O)N[C@@H](CC(C)C)C(=O)N[C@@H](CCC(N)=O)C(=O)N[C@H](C(=O)N[C@@H](Cc1ccc(O)cc1)C(=O)N1CCC[C@H]1C(=O)N[C@@H](CCCNC(=N)N)C(=O)N[C@H](C(=O)N[C@@H](CC(N)=O)C(=O)N[C@H](C(=O)NCC(=O)N[C@@H](CO)C(=O)NCC(=O)N[C@H](C(=O)N1CCC[C@H]1C(N)=O)[C@@H](C)O)[C@@H](C)O)[C@@H](C)O)[C@@H](C)O [CALCITONIN SALMON] | 0 | 0 | 1 | 0 | 3.1% | 0 | 0 | 0 | 0% | 0 | 0 | 0 | 0 | 0 |
| COc1cc(NCc2ccc3nc(N)nc(N)c3c2C)cc(OC)c1OC [TRIMETREXATE] | 0 | 0 | 10 | 0 | 25% | 0 | 0 | 0 | 8% | 0 | 0 | 0 | 1 | 0 |
| CCC(C)(C)NCC(O)COc1ccccc1C(=O)CCc1ccccc1 (stereo not given) [DIPRAFENONE] | 0 | 0 | 3 | 0 | 3.7% | 0 | 0 | 0 | 1.6% | 0 | 0 | 1 | 1 | 0 |
| NS(=O)(=O)c1cc2c(cc1C(F)(F)F)NC(Cc1ccccc1)NS2(=O)=O (stereo not given) [BENDROFLUMETHIAZIDE] | 0 | 0 | 0 | 0 | 0% | 0 | 0 | 0 | 0% | 0 | 0 | 0 | 1 | 0 |
| CN1CCCN(C(c2ccccc2)c2ccc(Cl)cc2)CC1 (stereo not given) [HOMOCHLORCYCLIZINE] | 0 | 0 | 0 | 0 | 0% | 0 | 0 | 0 | 0% | 0 | 0 | 1 | 1 | 1 |
